From patent EP4725508A1, “LIGAND-DRUG CONJUGATE HAVING FREE PAYLOAD RECOVERY UNIT” (RemeGen Co., Ltd., priority 2024, dated 2025)
Like-named read-outs stand apart in the source and are kept apart here. Square brackets hold non-standard residues; d marks the D form. Peptide text beside a SMILES is read from it. * marks the point of attachment. Dolaproine = CO[C@@H]([C@@H]1CCCN1)[C@@H](C)C(=O)O; Dil = CC[C@H](C)[C@H](NC)[C@@H](CC(=O)O)OC; X1 = C[C@@H](N*)[C@@H](O)c1ccccc1; NMeV = CN[C@H](C(=O)O)C(C)C

Columns and labels:
CHOK1 [1] = assay: Cell killing activity; type: cell-based
OVCAR3 [2] = assay: Cell killing activity; type: cell-based
[3] = system: chimeric antibody No. 62 (VH SEQ ID NO: 1, VL SEQ ID NO: 5); assay: Blocking experiment (ELISA, OVA-MMAF coated); type: binding, mouse; settings: MMAE+antibody; OVA-MMAF coated 200 ng/mL; antibody 100 ng/mL
Description: (§1) Blocking Experiment: OVA-MMAF was coated onto ELISA plates at a concentration of 200 ng/mL and incubated at 37°C for 1 h. The plates were blocked with 5% skim milk and incubated at 37°C for 2 h. The antibody was diluted to a final concentration of 100 ng/mL. MMAE and MMAE-Linker were diluted at concentrations of 600, 200, 66.67, 22.22, 7.41, 2.47, 0.82, 0.27, 0.09, 0.03, and 0.01 nM. 50 µL MMAE + 50 µL chimeric antibody and 50 µL MMAE-Linker + 50 µL chimeric antibody were added respectively to the ELISA plates. The total volume per well was 100 µL. The plates were incubated at 37°C for 1 h. Goat Anti-Human IgG H&L (HRP) (abcam, ab6858) diluted at 1:5000 was added, incubated at 37°C for 1 h, and then subjected to TMB color development. The OD value was determined at 450 nm.

[4] = system: chimeric antibody No. 64 (VH SEQ ID NO: 8, VL SEQ ID NO: 12); assay: Blocking experiment (ELISA, OVA-MMAF coated); type: binding, mouse; settings: MMAE+antibody; OVA-MMAF coated 200 ng/mL; antibody 100 ng/mL
Description: as §1

[5] = system: humanized antibody ABC3320 (Heavy chain: SEQ ID NO: 163; Light chain: SEQ ID NO: 164); assay: Blocking experiment (ELISA, OVA-MMAF coated); type: binding; settings: MMAE+ antibody; OVA-MMAF coated 200 ng/mL; antibody 100 ng/mL; control in Tables 6, 8, 10, 12
Description: as §1
(§2) Blocking Experiment: The experimental steps were the same as the above blocking experiment.

[6] = target: chimeric antibody No. 62 (VH SEQ ID NO: 1, VL SEQ ID NO: 5); assay: Biacore determination, binding affinity with free MMAE; design: species or system mouse; settings: antibody immobilized with ProA probe; free MMAE 50-1.85 nM
Description: (§3) Antibody immobilization: 20 µg/mL of antibody was immobilized onto the chip surface using a ProA probe; Binding: Antigen MMAE concentrations were 50, 16.7, 5.5, 1.85, and 0 nM. The flow rate was set at 30 µL/min, and the contact time was 600 s; Dissociation: The chip was washed with HEPES buffer for 300 s. Regeneration: Regeneration was performed with 10 mM Glycine-HCl.

chimeric antibody No. 74 = assay: as above; design: species or system mouse; settings: antibody immobilized with ProA probe; free MMAE 50-1.85 nM
Description: as §3

chimeric antibody No. 69 = assay: as above; design: species or system mouse; settings: antibody immobilized with ProA probe; free MMAE 50-1.85 nM
Description: as §3

chimeric antibody No. 1 = assay: as above; design: species or system mouse; settings: antibody immobilized with ProA probe; free MMAE 50-1.85 nM
Description: as §3

chimeric antibody No. 92 = assay: as above; design: species or system mouse; settings: antibody immobilized with ProA probe; free MMAE 50-1.85 nM
Description: as §3

chimeric antibody No. 93 = assay: as above; design: species or system mouse; settings: antibody immobilized with ProA probe; free MMAE 50-1.85 nM
Description: as §3

chimeric antibody No. 44 = assay: as above; design: species or system mouse; settings: antibody immobilized with ProA probe; free MMAE 50-1.85 nM
Description: as §3

chimeric antibody No. 89 = assay: as above; design: species or system mouse; settings: antibody immobilized with ProA probe; free MMAE 50-1.85 nM
Description: as §3

[7] = system: chimeric antibody No. J4 (VH SEQ ID NO: 21, VL SEQ ID NO: 25); assay: Blocking experiment (ELISA, OVA-MMAF coated); type: binding, mouse; settings: MMAE+antibody; OVA-MMAF coated 200 ng/mL; antibody 100 ng/mL
Description: as §1, §2

[8] = system: chimeric antibody No. 133 (VH SEQ ID NO: 46, VL SEQ ID NO: 49); assay: Blocking experiment (ELISA, OVA-MMAF coated); type: binding, mouse; settings: MMAE+antibody; OVA-MMAF coated 200 ng/mL; antibody 100 ng/mL
Description: as §1, §2

[9] = system: chimeric antibody No. 92 (VH SEQ ID NO: 28, VL SEQ ID NO: 32); assay: Blocking experiment (ELISA, OVA-MMAF coated); type: binding, mouse; settings: MMAE+antibody; OVA-MMAF coated 200 ng/mL; antibody 100 ng/mL
Description: as §1, §2

[10] = system: chimeric antibody No. 93 (VH SEQ ID NO: 35, VL SEQ ID NO: 38); assay: Blocking experiment (ELISA, OVA-MMAF coated); type: binding, mouse; settings: MMAE+antibody; OVA-MMAF coated 200 ng/mL; antibody 100 ng/mL
Description: as §1, §2

[11] = system: chimeric antibody No. 132 (VH SEQ ID NO: 39, VL SEQ ID NO: 43); assay: Blocking experiment (ELISA, OVA-MMAF coated); type: binding, mouse; settings: MMAE+antibody; OVA-MMAF coated 200 ng/mL; antibody 100 ng/mL
Description: as §1, §2

[12] = target: humanized antibody ABC3320 (Heavy chain: SEQ ID NO: 163; Light chain: SEQ ID NO: 164); assay: Biacore determination, binding affinity with free MMAE; settings: antibody immobilized with ProA probe; free MMAE 50-1.85 nM
Description: as §3

HCC1954 [13] = assay: Cell killing activity; type: cell-based
Nectin-4 = target: T1, Nectin-4 (Homo sapiens, UniProt Q96NY8); assay: Binding activity with Nectin-4
T1 sequence (Q96NY8 32-510): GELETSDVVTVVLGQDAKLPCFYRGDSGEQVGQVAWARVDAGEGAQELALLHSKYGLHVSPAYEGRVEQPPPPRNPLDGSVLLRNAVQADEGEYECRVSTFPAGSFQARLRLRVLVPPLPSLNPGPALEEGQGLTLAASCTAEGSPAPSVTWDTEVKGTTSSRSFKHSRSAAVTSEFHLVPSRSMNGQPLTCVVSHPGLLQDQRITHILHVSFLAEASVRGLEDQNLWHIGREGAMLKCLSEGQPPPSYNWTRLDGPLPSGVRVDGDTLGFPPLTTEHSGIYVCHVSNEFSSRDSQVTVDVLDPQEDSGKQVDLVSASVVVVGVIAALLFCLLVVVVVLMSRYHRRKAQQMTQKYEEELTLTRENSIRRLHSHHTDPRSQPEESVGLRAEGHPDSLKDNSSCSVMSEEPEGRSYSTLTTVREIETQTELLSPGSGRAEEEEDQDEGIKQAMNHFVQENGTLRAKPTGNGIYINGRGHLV

[14] = Comparative study of toxicity in BALB/c mice; type: in vivo
Description: (§4) Test 1: 18 BALB/c mice, female, with body weights of 16 to 19 g at the time of grouping, were divided into a PR-ADC group (CDCP1A9-DL01-MMAE, 140 mg/kg) and a conventional ADC group (CDCP1A6-DL01-MMAE, 100 mg/kg), both at equimolar doses, with 9 mice in each group (5 for toxicology + 4 for toxicokinetic (TK)), for a total of 2 groups. A single dose was administered, with a dosing volume of 10 mL/kg. The drug-related toxic effects in BALB/c mice for each group were investigated and compared through aspects such as death, clinical observation, body weight, and toxicokinetic detection. The experiment lasted for 14 days.
(§5) Test 2: 16 BALB/c mice, female, with body weights of 16 to 20 g at the time of grouping, were divided into PR-ADC group (CDCP1A12-DL01-MMAE, 134 mg/kg) and conventional ADC group (CDCP1A6-DL01-MMAE, 100 mg/kg) dose group, both at equimolar doses, with 8 mice in each group (4 for toxicology + 4 for TK), for a total of 2 groups. A single dose was administered, with a dosing volume of 10 mL/kg. The drug-related toxic effects in BALB/c mice for each group were investigated and compared through aspects such as death, clinical observation, body weight, and toxicokinetic detection. The experiment lasted for 14 days.
(§6) 18 BALB/c mice, female, with body weights of 16 to 19 g at the time of grouping, were divided into a PR-ADC group (Nectin4A14-DL01-MMAE, 136 mg/kg) and a conventional ADC group (EV, 100 mg/kg), both at equimolar doses, with 9 mice in each group (5 for toxicology + 4 for TK), for a total of 2 groups.

HCC1954 [15] = assay: Cell killing activity; type: cell-based; remark: listed apart in the source
CHOK1 [16] = assay: Cell killing activity; type: cell-based; remark: listed apart in the source
OVCAR3 [17] = assay: Cell killing activity; type: cell-based; remark: listed apart in the source
[18] = Toxicokinetics of free MMAE in serum (Hybrid LBA LC-MS/MS); type: in vivo; settings: BALB/c mice, Nectin4A14-DL01-MMAE 136 mg/kg vs EV 100 mg/kg
Description: as §4
Free MMAE was determined using a Hybrid LBA LC-MS/MS method. Protein A/G-Beads were used to separate the ADC/PR-ADC, MMAE-bound PR-ADC, and MMAE-bound anti-MMAE antibodies from the serum. The remaining samples were subjected to protein precipitation and then tested for free MMAE using the LC-MS/MS method. Table 34. Toxicity test results of animals in each group
as §5
Free MMAE was also determined using the Hybrid LBALC-MS/MS method. Table 36. Toxicity test results of animals in each group
as §6
Free MMAE was also determined using the Hybrid LBA LC-MS/MS method. Table 38. […]

[19] = system: human bladder cancer cell HT-1376 subcutaneous xenograft; assay: Efficacy in subcutaneous xenograft model; type: in vivo, BALB/c-nu mice; settings: equimolar doses
Description: Human bladder cancer cells HT-1376 were expanded and cultured, and then subcutaneously inoculated into the right forelimb axilla near the back of BALB/c-nu mice (GemPharmatech, female). Tumor growth was observed. When the tumor volume reached about 90 to 200 mm^3, the mice were randomized into groups based on tumor volume and administered with drugs.
The day of administration was designated as D0. During the experiment, tumor long diameter, short diameter, and body weight were measured twice a week, accompanied by observation of clinical symptoms. At the endpoint of the experiment, the experimental mice were euthanized.

CC[C@H](C)[C@@H]([C@@H](CC(=O)N1CCC[C@H]1[C@H](OC)[C@@H](C)C(=O)N[C@H](C)[C@@H](O)c1ccccc1)OC)N(C)C(=O)[C@@H](NC(=O)[C@@H](NC)C(C)C)C(C)C [MMAE, monomethyl auristatin E] (H-[NMeV]V[Dil][Dolaproine]-X1)
MIR (%) (CHOK1 [1]): 83.94% | IC50 (CHOK1 [1]; Cricetulus griseus, CHO-K1): 34.9 nM | MIR (%) (OVCAR3 [2]): 3.69% | IC50 (OVCAR3 [2]; Homo sapiens, OVCAR-3): 0.31 nM | IC50 [3]: 1.43 nM | IC50 [4]: 4.76 nM | IC50 [5]: 1.37 nM | Kd [6]: 0.741 nM | ka [6]: 105000 M⁻¹ s⁻¹ | kd [6]: 7.78e-05 s⁻¹ | Kd (chimeric antibody No. 74): 2.14 nM | ka (chimeric antibody No. 74): 84400 M⁻¹ s⁻¹ | kd (chimeric antibody No. 74): 0.00018 s⁻¹ | Kd (chimeric antibody No. 69): 2.14 nM | ka (chimeric antibody No. 69): 70200 M⁻¹ s⁻¹ | kd (chimeric antibody No. 69): 0.00015 s⁻¹ | Kd (chimeric antibody No. 1): 1.78 nM | ka (chimeric antibody No. 1): 53500 M⁻¹ s⁻¹ | kd (chimeric antibody No. 1): 9.52e-05 s⁻¹ | Kd (chimeric antibody No. 92): 2.66 nM | ka (chimeric antibody No. 92): 67300 M⁻¹ s⁻¹ | kd (chimeric antibody No. 92): 0.000179 s⁻¹ | Kd (chimeric antibody No. 93): 2.81 nM | ka (chimeric antibody No. 93): 85700 M⁻¹ s⁻¹ | kd (chimeric antibody No. 93): 0.000241 s⁻¹ | Kd (chimeric antibody No. 44): 1.78 nM | ka (chimeric antibody No. 44): 326000 M⁻¹ s⁻¹ | kd (chimeric antibody No. 44): 0.00058 s⁻¹ | Kd (chimeric antibody No. 89): 2.11 nM | ka (chimeric antibody No. 89): 61600 M⁻¹ s⁻¹ | kd (chimeric antibody No. 89): 0.00013 s⁻¹ | IC50 [7]: 1.89 nM | IC50 [8]: 1.59 nM | IC50 [9]: 83.8 nM | IC50 [10]: 54.7 nM | IC50 [11]: 1.32 nM | Kd [12]: 0.318 nM | ka [12]: 100000 M⁻¹ s⁻¹ | kd [12]: 3.18e-05 s⁻¹ | MIR (%) (HCC1954 [13]): 60.95% | IC50 (HCC1954 [13]; Homo sapiens): 0.31 nM

Enfortumab vedotin [EV]
Top OD450 (Nectin-4): 1.23 | Clinical Observation ([14]; Nectin4A14-DL01-MMAE 136 mg/kg vs EV 100 mg/kg): Piloerection (4/4), Hunched posture (5/5), Squinting eyes (5/5), Lethargy (1/5) | Death ([14]; Nectin4A14-DL01-MMAE 136 mg/kg vs EV 100 mg/kg (equimolar)): 2/9 | Max Body Weight Change Rate ([14]; Nectin4A14-DL01-MMAE 136 mg/kg vs EV 100 mg/kg, day in brackets in the cell): -24.4% (D7) | tolerance ([14]; Nectin-4 comparison): less than 100 mg/kg | IC50 (HCC1954 [15]): 148 nM | MIR (%) (HCC1954 [15]): 70.90% | MIR (%) (CHOK1 [16]): 17.40% | IC50 (OVCAR3 [17]): 33.3 nM | MIR (%) (OVCAR3 [17]): 60.27% | Free MMAE AUC [18]: 9.09097 ± 0.65517 µM·h | Free MMAE Cmax [18]: 0.07608 ± 0.00488 µM | Free MMAE Tmax [18]: 24 h | TGI [19]: 71%
